One compound from patent US9474759B2 (priority 2011, dated 2016) can be followed below.

One assay deals with FIPV. Kind of assay: Cell-based screening, FIPV in CRFK cells (Example 2). The arrangement: species or system feline infectious peritonitis virus. The following applies: Alphacoronavirus 1; CRFK cells; read-out: Inhibition [ED50 (μM)] against various viruses: Coronavirus, FIPV. The protocol: (§1) 3. Cell-based screening of inhibitor. The effects of each inhibitor on the viral replication were examined. The list of viruses and corresponding cell lines are listed above in Table 2. Briefly, confluent cells were inoculated with virus at a MOI of 5 or 0.05 for 1 hr, and medium was replaced with medium containing mock-medium or each compound (up to 100 μM). The virus infected cells were further incubated for up to 96 hrs, and the replication of virus was measured by TCID50 assay with the 10-fold dilution of each sample used for virus titration (Reed and Muench, 1938). In some viruses, the virus protein and genome expression levels were detected by Western blot analysis and real-time qRT-PCR, respectively, as described below. The IC50s of the compounds were calculated.

For assay [1], the system named is MNV-1. The experiment in a line: microbe, parasite or virus in culture. As to conditions: Norwalk virus, read-out: Initial IC50 values against MNV-1.
In the next assay the test system is HAV. The experiment in a line: Cell-based screening, HAV (Example 2). As to conditions: Picornaviridae; read-out: Inhibition [ED50 (μM)] against various viruses: Picornavirus, HAV. The arrangement: species or system hepatitis A virus. The protocol: as §1
A further assay has as its system FECV-1683. Kind of assay: FECV-1683 replication in CRFK cells, TCID50 method. The class given is cell-based, feline coronavirus. As to conditions: Alphacoronavirus 1, MOI 0.05, mean ± SEM. Here is the method:
(§2) Crandell Rees feline kidney (CRFK) cells were maintained in minimal essential medium containing 2-5% fetal bovine serum and antibiotics (chlortetracycline [25 μg/ml], penicillin [250 U/ml], and streptomycin [250 μg/ml]). FIPV WSU 79-1146 and FECV WSU 79-1683 strains are the prototypes of serotype II FIPV or FECV, respectively, and were purchased from ATCC (Manassas, Va.).
(§3) The cells were further incubated in the presence of each compound for 1 hr at 37° C. Then […] or FECV-1683 was inoculated to the cells at a multiplicity of infection (MOI) of 0.05 or 5.
(§4) b. TCID50 Method. A standard TCID50 method with the 10-fold dilution of each sample was used for virus titration.

Assay [2] addresses NV 3CLpro (codon-optimized, full-length, N-terminal 6 His, recombinant) (Norovirus, UniProt Q83883). Kind of assay: biochemical. The arrangement: species or system norovirus strain Norwalk.
A further assay concerns TGEV. The experiment in a line: Cell-based screening, TGEV in ST cells (Example 2). Also on record: species or system transmissible gastroenteritis virus. The following applies: Alphacoronavirus 1; ST cells; read-out: Inhibition [ED50 (μM)] against various viruses: Coronavirus, TGEV. The protocol:
as §1

Assay [3] addresses MD145 3CLpro (codon-optimized, full-length, N-terminal 6 His, recombinant) (Lordsdale virus, UniProt P54634). Kind of assay: biochemical. The arrangement: species or system norovirus strain MD145 (human norovirus GII).
Assay [4] deals with FCV. The experiment in a line: Cell-based screening, FCV in CRFK cells (Example 2). As to conditions: Feline calicivirus; CRFK cells; read-out: Inhibition [ED50 (μM)] against various viruses: Calicivirus, FCV. Here is the method: as §1
Assay [5] deals with FCV. Kind of assay: Cell culture system, FCV replication in CRFK cells (Example 3). The class given is cell-based, feline calicivirus. The following applies: Feline calicivirus; cell-based assay, CRFK cells; read-out: IC50 against FCV replication.
In assay [6] the target is PV 3Cpro (codon-optimized, N-terminal 6 His, recombinant) (Poliovirus type 1, UniProt P03300). Kind of assay: biochemical. Also on record: species or system poliovirus (poliomyelitis virus).
PV 3Cpro (codon-optimized, N-terminal 6 His, recombinant), sequence (P03300 1566-1748 limits assumed): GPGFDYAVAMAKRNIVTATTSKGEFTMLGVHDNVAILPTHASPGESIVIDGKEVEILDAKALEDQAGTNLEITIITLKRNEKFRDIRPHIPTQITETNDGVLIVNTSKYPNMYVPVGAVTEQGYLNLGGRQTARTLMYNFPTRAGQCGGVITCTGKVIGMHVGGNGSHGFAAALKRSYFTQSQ
Assay [7] has as its target FMDV 3Cpro (codon-optimized, N-terminal 6 His, recombinant) (Foot-and-mouth disease virus serotype O, UniProt P03305). The experiment in a line: biochemical.
The next assay concerns the target TGEV 3CL protease (Porcine transmissible gastroenteritis coronavirus, UniProt P0C6Y5). Kind of assay: FRET-based protease assay, TGEV 3CL protease (Example 5). The format is biochemical, TGEV Miller strain. As to conditions: TGEV 3CL protease; read-out: IC50 against 3CL protease in the FRET assay. From the text: The 3CL proteases are highly conserved among all coronaviruses, and feline coronavirus 3CL protease is closely related TGEV 3CL protease. Therefore we cloned and expressed the TGEV 3CL protease for the FRET assay. The cDNA encoding the full length of 3CL protease of TGEV Miller strain was amplified with RT-PCR as previously described. The primers contained the nucleotide sequence of the 3CL protease for cloning as well as the nucleotides for 6 Histidine in the forward primer. The amplified product was subcloned to pET-28a(+) vector (GenScript, Piscataway, N.J.). The expression and purification of the 3CL protease was performed with a standard method described previously by our lab (Chang et al., 2012b; Takahashi et al., 2012; Tiew et al., 2011).
Our protease inhibitor compounds and commercial cathepsin inhibitors CA074-Me and E64d were prepared in DMSO as stock solutions (10 mM), and further diluted in assay buffer consisting of 20 mM HEPES, 0.4 mM EDTA, 30% glycerol, 120 mM NaCl, and 4 mM DTT at pH 6. […] TGEV 3CL protease at a final concentration of 0.1˜0.2 μM and the substrate (Dabcyl-[…]-Edans; SEQ ID NO:2) at 10 μM were used for the studies. The substrate was purchased from Bachem Americas, Inc (Torrance, Calif.). Compounds at various concentrations (0˜50 μM) were pre-incubated with TGEV 3CL protease in 25 μl for 30 min at 37° C., and the same volume of substrate was added to a 96-well black plate. The mixtures were then incubated at 37° C. for 60 min, and fluorescence readings were obtained on a microplate reader at 360 nm excitation and 480 nm emission wavelengths. The relative fluorescence units (RFU) were calculated by subtracting background (substrate control well without protease) from the fluorescence readings. The dose-dependent FRET inhibition curves were fitted with variable slope (four parameters) using GraphPad Prism software (La Jolla, Calif.) in order to determine the compound concentration that gives a half-maximum response (IC50).

The target of assay [8] is MNV-1 3CLpro (codon-optimized, full-length, recombinant) (Norovirus, UniProt Q80J95). Kind of assay: biochemical. The arrangement: species or system murine norovirus-1 (GV).
MNV-1 3CLpro (codon-optimized, full-length, recombinant), sequence (Q80J95 995-1177): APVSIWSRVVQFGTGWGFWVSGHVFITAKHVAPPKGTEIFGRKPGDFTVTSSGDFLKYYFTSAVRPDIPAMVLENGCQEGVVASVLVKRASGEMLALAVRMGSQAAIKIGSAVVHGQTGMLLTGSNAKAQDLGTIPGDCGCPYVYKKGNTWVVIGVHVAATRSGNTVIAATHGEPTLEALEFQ
The subject of a further assay is FIPV-1146. The experiment in a line: FIPV-1146 replication in CRFK cells, TCID50 method. The class given is cell-based, feline coronavirus. The following applies: Alphacoronavirus 1, MOI 0.05, mean ± SEM. Here is the method:
as §2, §3, §4

Another assay relates to 229E. Kind of assay: Cell-based screening, 229E in MRC-5 cells (Example 2). The following applies: Human coronavirus 229E, MRC5; MRC-5 cells; read-out: Inhibition [ED50 (μM)] against various viruses: Coronavirus, 229E. The protocol:
as §1

The test system of assay [9] is Norwalk virus (HG23 cells). The experiment in a line: microbe, parasite or virus in culture. The class given is cell-based. The following applies: HG23, read-out: Inhibition [ED50 (μM)] against various viruses: Calicivirus, HG23 cells.
The subject of a further assay is EV71. The experiment in a line: Cell-based screening, EV71 in Vero cells (Example 2). The arrangement: species or system enterovirus 71. The following applies: Enterovirus A, EV71; Vero cells; read-out: Inhibition [ED50 (μM)] against various viruses: Picornavirus, EV71. The protocol: as §1
Another assay relates to Teschovirus. Kind of assay: organism not typed. The class given is cell-based, porcine teschovirus. As to conditions: read-out: Inhibition [ED50 (μM)] against various viruses: Picornavirus, Teschovirus.
The target in assay [10] is recombinant 3C or 3CL of MD145 (Norovirus Hu/GII.4/MD145-12/1987/US (Maryland virus), UniProt Q8V0P3). Kind of assay: FRET protease assay, MD145 3CL (Example 2). The format is biochemical, norovirus strain MD145.
recombinant 3C or 3CL of MD145, sequence (Q8V0P3 entry or part of it): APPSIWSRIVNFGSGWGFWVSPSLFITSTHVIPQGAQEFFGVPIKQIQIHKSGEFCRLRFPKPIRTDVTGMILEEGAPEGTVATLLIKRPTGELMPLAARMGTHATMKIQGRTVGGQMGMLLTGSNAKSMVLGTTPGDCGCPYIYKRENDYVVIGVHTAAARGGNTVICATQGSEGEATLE
The subject of assay [11] is MNV-1. Kind of assay: Cell-based screening, MNV-1 in RAW267.4 cells (Example 2). Also on record: species or system murine norovirus. As to conditions: Norwalk virus; RAW267.4 cells; read-out: Inhibition [ED50 (μM)] against various viruses: Calicivirus, MNV-1. The protocol: as §1

Where two headings read alike, the source gives them in different places.

NV 3CLpro (codon-optimized, full-length, N-terminal 6 His, recombinant), sequence (Q83883 1101-1281): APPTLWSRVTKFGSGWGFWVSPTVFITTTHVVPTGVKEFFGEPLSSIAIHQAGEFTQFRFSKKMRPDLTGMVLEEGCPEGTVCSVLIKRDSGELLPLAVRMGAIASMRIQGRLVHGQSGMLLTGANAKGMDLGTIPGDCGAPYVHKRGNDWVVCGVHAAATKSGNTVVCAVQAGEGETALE
FMDV 3Cpro (codon-optimized, N-terminal 6 His, recombinant), sequence (P03305 1650-1862 limits assumed): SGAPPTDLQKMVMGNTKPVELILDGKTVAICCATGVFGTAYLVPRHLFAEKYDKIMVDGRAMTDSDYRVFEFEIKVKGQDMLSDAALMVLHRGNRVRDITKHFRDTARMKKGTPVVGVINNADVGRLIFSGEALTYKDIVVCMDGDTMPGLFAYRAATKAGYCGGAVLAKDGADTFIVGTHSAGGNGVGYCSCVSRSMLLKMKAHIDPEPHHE
MD145 3CLpro (codon-optimized, full-length, N-terminal 6 His, recombinant), sequence (P54634 1009-1189): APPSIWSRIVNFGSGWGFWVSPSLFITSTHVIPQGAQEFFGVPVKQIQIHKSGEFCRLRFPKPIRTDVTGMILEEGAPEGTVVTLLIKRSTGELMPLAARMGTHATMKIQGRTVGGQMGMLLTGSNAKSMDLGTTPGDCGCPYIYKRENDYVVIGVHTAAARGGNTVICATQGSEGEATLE
TGEV 3CL protease, sequence (P0C6Y5 2879-3180): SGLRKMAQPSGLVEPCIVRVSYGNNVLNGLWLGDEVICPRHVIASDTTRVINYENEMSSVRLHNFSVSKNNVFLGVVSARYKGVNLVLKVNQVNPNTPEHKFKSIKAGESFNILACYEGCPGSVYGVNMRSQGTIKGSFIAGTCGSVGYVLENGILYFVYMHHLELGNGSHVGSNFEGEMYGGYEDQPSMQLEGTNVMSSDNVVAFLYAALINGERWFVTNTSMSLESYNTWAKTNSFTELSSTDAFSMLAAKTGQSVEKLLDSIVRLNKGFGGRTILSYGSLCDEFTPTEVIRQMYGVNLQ

The term IC50 denotes the concentration needed to halve the response being measured. `CC(C)C[C@H](NC(=O)OCc1ccccc1)C(=O)N[C@@H](CC1CCNC1=O)C(O)S(=O)(=O)O` (stereo partly shown) [GC376]: the EC50 is 0.2 µM with FIPV; 50 µM in the assay with HAV; 0.17 ± 0.11 µM in the assay with FECV-1683 (24 hr post infection, read-out: Inhibition [ED50 (μM)] against FECV-1683, 24 hrs); 0.28 ± 0.1 µM with FECV-1683 (48 hr post infection, read-out: Inhibition [ED50 (μM)] against FECV-1683, 48 hrs); 0.15 µM in the assay with TGEV; 35 µM with FCV [4]. Besides, the EC50 with FIPV-1146 (24 hr post infection, read-out: Inhibition [ED50 (μM)] against FIPV-1146, 24 hrs) stood at 0.15 ± 0.05 µM; in the assay with FIPV-1146 (48 hr post infection, read-out: Inhibition [ED50 (μM)] against FIPV-1146, 48 hrs), 0.3 ± 0.1 µM; in the assay with 229E, 0.3 µM; in assay [9], 1.8 µM; with EV71 it was 10 µM; in the assay on Teschovirus it was 0.15 µM. Moreover, the EC50 with MNV-1 [11] came out at 5.3 µM. The IC50 was 6200 to 7100 nM with MNV-1 [1]; 490 ± 50 nM in assay [2]; 960 nM in assay [3]; 35000 nM in the assay on FCV [5]; 1770 ± 310 nM in [6]; 1160 ± 750 nM in assay [7]. Besides, the half-inhibitory concentration (IC50) on TGEV 3CL protease turned out to be 820 nM; in [8], 1120 nM; in [10] it was 9.8 µM.
